27 compounds from patent US9186360B2, “Treatment of respiratory disorders using TRPA1 antagonists” (GLENMARK PHARMACEUTICALS S.A., priority 2011, dated 2015) can be followed below.

Common to all, as to type: cell-based
Test [1] addresses human TRPV4 (Homo sapiens (Human), UniProt Q9HBA0). Nature of the test: Radiometric calcium selectivity assay, CHO cells expressing human TRPV4 (4α-phorbol 12,13-didecanoate). The following applies: read-out: IC50 values hTRPV4. On the procedure:
(§1) For selectivity screening, CHO cells stably expressing human TRPV1, human TRPV3, human TRPV4, or human TRPM8 were generated in-house and maintained in DMEM F-12 supplemented with 10% FBS and G418. All the cell types were cultured at 37° C. in humidified air containing 5% CO2. Radiometric calcium assay was performed as described above with some minor modifications. Assay was carried out in total volume of 200 μl at 30° C. (for TRPV1), 32° C. (for TRPV3) and 25° C. (for TRPV4 and TRPM8). Agonists used for selectivity screening of the different TRPs are: Capsaicin for TRPV1,2-aminoethoxydiphenyl borate for TRPV3, 4α-phorbol 12,13-didecanoate for TRPV4 and Icilin for TRPM8. After 2-5 minutes of agonist treatment, drug was washed and lysed in lysis buffer as mentioned above. Radioactivity in the lysate was measured in Packard Top count after addition of liquid scintillant.

The target of test [2] is human TRPV3 (Homo sapiens (Human), UniProt Q8NET8). The test can be described thus: Radiometric calcium selectivity assay, CHO cells expressing human TRPV3 (2-aminoethoxydiphenyl borate). The following applies: read-out: IC50 values hTRPV3. On the procedure:
as §1

Test [3] has as its target human TRPA1 (Homo sapiens (Human), UniProt O75762). Nature of the test: 45Calcium uptake assay, AITC induced, human TRPA1 expressing CHO cells. The conditions noted are these: AITC 30 micromolar, read-out: IC50 values hTRPA1. On the procedure:
As contemplated herein, the IC50 value is measured by the following method. The inhibition of TRPA1 receptor activation is measured as inhibition of allylisothiocyanate (AITC) induced cellular uptake of radioactive calcium. Test solution of test compound is prepared in a suitable solvent using appropriate method. Human TRPA1 expressing CHO cells are grown in suitable medium. Cells are treated with test compounds followed by addition of AITC. Cells are washed and lysed. Radioactivity in the lysate is measured in Packard Top count after addition of liquid scintillant. The concentration response curves for compounds are plotted as a % of maximal response obtained in the absence of test antagonist, and the IC50 values are calculated from such concentration response curve by nonlinear regression analysis using GraphPad PRISM software.
The illustrative TRPA1 antagonists of the present invention were screened for TRPA1 activity according to a modified procedure described in Tóth, A. et al., Life Sciences 2003, 73, 487-498. The screening of the compounds can be carried out by other methods and procedures known to persons skilled in the art.
Screening for TRPA1 Antagonist Using the 45Calcium Uptake Assay:
The inhibition of TRPA1 receptor activation was measured as inhibition of allylisothiocyanate (AITC) induced cellular uptake of radioactive calcium. Test compounds were dissolved in DMSO to prepare 10 mM stock solution and then diluted using plain medium with 0.1% BSA and 1.8 mM CaCl2 to get desired concentration. Final concentration of DMSO in the reaction was 0.5% (v/v). Human TRPA1 expressing CHO cells were grown in F-12 DMEM medium with 10% FBS, 1% penicillin-streptomycin solution, and 400 μg/ml of G-418. Cells were seeded 24 h prior to the assay in 96 well plates so as to get ˜50,000 cells per well on the day of experiment. Cells were treated with test compounds for 10 min followed by addition of AITC at a final concentration of 30 micromolar and 5 μCi/ml 45Ca+2 for 3 min at 25° C. Cells were washed and lysed using buffer containing 1% Triton X-100, 0.1% deoxycholate and 0.1% SDS. Radioactivity in the lysate was measured in Packard Top count after addition of liquid scintillant.
Concentration response curves were plotted as a % of maximal response obtained in the absence of test antagonist. IC50 value was calculated from concentration response curve by nonlinear regression analysis using GraphPad PRISM software.

Test [4] addresses human TRPV1 (Homo sapiens (Human), UniProt Q8NER1). Nature of the test: Radiometric calcium selectivity assay, CHO cells expressing human TRPV1 (capsaicin). The following applies: read-out: IC50 values hTRPV1. The protocol:
as §1

Test [5] has as its target human TRPM8 (Homo sapiens (Human), UniProt Q7Z2W7). Nature of the test: Radiometric calcium selectivity assay, CHO cells expressing human TRPM8 (icilin). The conditions noted are these: read-out: IC50 values hTRPM8. The protocol:
as §1

human TRPA1, sequence (O75762 whole entry): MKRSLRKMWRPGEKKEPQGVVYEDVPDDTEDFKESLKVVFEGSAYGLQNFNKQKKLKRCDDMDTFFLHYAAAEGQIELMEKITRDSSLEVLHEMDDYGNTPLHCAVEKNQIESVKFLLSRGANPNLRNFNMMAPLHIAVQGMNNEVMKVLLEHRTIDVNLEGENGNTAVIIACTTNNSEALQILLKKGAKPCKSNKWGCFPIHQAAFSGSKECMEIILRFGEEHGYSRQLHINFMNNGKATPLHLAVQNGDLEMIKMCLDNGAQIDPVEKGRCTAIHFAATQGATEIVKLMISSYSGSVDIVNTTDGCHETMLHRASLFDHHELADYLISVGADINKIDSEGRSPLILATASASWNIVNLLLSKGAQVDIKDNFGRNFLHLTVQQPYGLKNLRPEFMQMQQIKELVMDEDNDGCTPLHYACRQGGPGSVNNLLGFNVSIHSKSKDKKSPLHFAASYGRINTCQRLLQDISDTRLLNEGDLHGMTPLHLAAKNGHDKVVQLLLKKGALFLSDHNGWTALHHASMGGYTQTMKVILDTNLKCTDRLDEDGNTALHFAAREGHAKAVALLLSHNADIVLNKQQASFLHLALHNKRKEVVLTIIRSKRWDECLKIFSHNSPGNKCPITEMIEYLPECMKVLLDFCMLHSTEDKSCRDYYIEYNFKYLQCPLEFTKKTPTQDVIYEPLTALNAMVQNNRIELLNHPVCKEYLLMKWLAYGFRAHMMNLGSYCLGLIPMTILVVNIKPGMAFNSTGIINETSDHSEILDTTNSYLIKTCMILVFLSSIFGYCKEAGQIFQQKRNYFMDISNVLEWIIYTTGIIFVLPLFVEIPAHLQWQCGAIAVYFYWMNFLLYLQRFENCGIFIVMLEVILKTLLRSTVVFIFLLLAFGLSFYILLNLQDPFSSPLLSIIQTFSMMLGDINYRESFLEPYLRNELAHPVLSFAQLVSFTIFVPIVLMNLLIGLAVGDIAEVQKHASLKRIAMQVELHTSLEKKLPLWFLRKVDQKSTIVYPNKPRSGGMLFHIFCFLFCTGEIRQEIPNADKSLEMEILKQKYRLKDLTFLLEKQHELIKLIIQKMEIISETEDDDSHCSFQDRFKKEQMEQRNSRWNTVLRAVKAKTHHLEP
human TRPV4, sequence (Q9HBA0 whole entry): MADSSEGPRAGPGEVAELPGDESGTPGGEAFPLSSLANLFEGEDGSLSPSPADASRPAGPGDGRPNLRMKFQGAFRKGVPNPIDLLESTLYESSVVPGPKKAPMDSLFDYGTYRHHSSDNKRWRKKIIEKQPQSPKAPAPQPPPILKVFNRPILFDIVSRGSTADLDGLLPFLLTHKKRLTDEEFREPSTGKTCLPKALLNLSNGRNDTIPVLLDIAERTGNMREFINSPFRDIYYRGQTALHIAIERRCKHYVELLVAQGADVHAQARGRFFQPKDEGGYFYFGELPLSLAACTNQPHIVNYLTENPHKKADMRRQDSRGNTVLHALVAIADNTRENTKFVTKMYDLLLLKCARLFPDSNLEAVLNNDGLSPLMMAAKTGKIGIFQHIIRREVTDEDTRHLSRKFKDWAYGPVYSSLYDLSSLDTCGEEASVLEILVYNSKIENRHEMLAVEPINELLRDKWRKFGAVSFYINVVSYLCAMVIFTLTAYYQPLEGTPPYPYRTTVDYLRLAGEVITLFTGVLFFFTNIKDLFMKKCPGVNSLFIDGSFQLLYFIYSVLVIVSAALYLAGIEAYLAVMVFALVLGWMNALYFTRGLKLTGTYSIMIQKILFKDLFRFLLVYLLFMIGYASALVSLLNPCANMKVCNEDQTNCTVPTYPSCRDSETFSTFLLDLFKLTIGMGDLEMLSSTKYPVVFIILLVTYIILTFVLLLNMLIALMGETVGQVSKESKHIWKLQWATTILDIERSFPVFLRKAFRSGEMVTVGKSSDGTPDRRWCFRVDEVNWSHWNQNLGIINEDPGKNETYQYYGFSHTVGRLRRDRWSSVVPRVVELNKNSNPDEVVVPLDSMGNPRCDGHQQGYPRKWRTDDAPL
human TRPM8, sequence (Q7Z2W7 whole entry): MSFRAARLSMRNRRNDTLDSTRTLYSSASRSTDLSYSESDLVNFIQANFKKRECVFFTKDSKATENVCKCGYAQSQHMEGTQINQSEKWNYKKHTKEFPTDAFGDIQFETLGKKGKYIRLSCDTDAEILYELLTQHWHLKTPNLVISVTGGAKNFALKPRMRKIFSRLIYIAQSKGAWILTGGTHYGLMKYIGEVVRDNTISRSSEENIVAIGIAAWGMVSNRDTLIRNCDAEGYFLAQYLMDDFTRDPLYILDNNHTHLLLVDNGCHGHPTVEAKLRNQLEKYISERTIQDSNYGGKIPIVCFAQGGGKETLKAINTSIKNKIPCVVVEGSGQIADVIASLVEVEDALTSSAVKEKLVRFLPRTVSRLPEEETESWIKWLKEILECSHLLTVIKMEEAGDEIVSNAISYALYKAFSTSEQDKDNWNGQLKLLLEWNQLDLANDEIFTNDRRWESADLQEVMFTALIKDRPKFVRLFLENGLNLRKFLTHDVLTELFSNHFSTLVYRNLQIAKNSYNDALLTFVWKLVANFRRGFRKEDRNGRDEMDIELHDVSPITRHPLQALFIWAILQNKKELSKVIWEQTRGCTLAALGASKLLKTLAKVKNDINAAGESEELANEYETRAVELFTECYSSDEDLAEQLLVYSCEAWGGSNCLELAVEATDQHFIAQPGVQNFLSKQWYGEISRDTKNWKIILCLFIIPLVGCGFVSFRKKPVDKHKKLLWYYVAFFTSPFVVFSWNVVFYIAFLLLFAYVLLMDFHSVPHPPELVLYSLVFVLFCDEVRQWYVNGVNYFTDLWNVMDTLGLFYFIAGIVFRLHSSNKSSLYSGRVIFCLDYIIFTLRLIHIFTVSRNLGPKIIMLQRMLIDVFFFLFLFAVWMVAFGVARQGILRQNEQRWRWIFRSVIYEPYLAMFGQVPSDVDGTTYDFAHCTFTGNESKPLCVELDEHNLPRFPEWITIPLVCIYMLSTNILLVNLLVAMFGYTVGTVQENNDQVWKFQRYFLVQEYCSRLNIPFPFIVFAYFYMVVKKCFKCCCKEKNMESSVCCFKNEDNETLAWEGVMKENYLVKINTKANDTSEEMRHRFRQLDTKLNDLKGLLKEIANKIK
human TRPV3, sequence (Q8NET8 whole entry): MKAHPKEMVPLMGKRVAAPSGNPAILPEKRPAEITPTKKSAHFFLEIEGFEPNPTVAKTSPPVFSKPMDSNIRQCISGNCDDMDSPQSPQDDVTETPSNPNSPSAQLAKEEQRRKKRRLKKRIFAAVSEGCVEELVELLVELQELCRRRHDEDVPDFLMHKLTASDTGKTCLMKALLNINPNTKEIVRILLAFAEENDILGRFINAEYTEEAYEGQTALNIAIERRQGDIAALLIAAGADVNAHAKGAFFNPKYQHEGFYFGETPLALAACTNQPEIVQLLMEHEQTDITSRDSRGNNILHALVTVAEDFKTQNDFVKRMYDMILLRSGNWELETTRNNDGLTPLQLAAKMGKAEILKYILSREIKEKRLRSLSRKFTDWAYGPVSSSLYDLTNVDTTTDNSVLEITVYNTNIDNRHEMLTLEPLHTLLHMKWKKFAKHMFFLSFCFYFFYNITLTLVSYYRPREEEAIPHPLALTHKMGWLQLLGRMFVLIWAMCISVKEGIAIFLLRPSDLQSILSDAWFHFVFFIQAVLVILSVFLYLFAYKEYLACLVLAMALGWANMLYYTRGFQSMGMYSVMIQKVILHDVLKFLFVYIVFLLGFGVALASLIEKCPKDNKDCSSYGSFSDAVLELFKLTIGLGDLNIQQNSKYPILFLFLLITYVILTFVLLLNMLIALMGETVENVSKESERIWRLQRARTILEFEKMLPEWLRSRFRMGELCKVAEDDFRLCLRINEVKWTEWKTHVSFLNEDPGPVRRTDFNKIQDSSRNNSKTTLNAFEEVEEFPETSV
human TRPV1, sequence (Q8NER1 whole entry): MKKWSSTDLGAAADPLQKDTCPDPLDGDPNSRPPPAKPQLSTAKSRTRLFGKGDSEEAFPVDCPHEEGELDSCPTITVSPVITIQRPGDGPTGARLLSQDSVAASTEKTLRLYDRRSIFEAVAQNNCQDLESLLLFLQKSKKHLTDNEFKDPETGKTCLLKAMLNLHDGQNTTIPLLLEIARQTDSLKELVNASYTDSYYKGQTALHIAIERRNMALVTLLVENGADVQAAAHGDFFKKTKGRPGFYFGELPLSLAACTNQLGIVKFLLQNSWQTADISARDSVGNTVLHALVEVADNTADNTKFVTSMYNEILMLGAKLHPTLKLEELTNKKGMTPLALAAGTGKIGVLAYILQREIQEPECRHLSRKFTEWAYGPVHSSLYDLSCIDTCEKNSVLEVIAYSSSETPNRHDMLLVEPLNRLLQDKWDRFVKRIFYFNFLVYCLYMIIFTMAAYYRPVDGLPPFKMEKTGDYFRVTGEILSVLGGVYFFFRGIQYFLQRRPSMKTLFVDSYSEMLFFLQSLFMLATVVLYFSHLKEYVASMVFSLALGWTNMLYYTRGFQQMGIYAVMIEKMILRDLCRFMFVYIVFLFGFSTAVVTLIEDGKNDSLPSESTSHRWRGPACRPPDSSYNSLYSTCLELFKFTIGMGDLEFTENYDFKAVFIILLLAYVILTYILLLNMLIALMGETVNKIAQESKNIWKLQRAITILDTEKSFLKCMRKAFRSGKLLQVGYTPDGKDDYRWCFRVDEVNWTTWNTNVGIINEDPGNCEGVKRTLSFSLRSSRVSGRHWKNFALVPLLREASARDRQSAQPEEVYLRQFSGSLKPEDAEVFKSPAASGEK

As usually defined, the IC50 is the concentration at which inhibition is half-maximal. As for `CN1C(=O)c2c(ncn2CC(=O)Nc2nc(-c3ccc(Br)cc3)cs2)N2CCN=C12` [Compound 1], the IC50 in test [1] is over 10 µM; in test [2] it was over 10 µM; in test [3], 0.921 µM; in test [4], over 10 µM; in test [5], over 10 µM.

As for `CN1C(=O)c2c(ncn2CC(=O)Nc2nc(-c3ccc(C(C)(C)C)cc3)cs2)N2CCN=C12` [Compound 2], the IC50 in test [1] was 3.84 µM; in test [2] it was over 10 µM; in test [3] it was 0.382 µM; in test [4], over 10 µM; in test [5] it was over 10 µM.

Regarding `Cn1c(=O)c2c(CC(=O)Nc3nc(-c4ccc(Br)cc4)cs3)cccc2n(C)c1=O` [Compound 3], the IC50 in test [1] was 0.969 µM; in test [2], over 10 µM; in test [3], 0.0733 µM; in test [4], over 10 µM; in test [5], over 10 µM.

`Cn1c(=O)c2c(CC(=O)Nc3nc(-c4ccc(Cl)c(Cl)c4)cs3)cccc2n(C)c1=O` [Compound 4]: the half-maximal inhibitory concentration (IC50) in test [1] is over 1 µM; in test [2], over 10 µM; in test [3], 0.0983 µM; in test [4] it was over 10 µM; in test [5], over 10 µM.

`Cn1c(=O)c2c(CC(=O)Nc3nc(-c4ccc(I)cc4)cs3)cccc2n(C)c1=O` [Compound 5]: the IC50 in test [1] is over 1 µM; in test [2], over 10 µM; in test [3] it was 0.0663 µM; in test [4], over 10 µM; in test [5], over 10 µM.

Regarding `Cc1ccc(-c2csc(NC(=O)Cc3cccc4c3c(=O)n(C)c(=O)n4C)n2)cc1` [Compound 6], the IC50 in test [1] was over 1 µM; in test [2], over 10 µM; in test [3], 0.0974 µM; in test [4] it was over 10 µM; in test [5] it was over 10 µM.

As to `Cn1c(=O)c2c(CC(=O)Nc3nc(-c4cccc(C(F)(F)F)c4)cs3)cccc2n(C)c1=O` [Compound 7], the IC50 in test [1] was 1.87 µM; in test [2], 2.1 µM; in test [3] it was 0.0474 µM; in test [4], over 10 µM; in test [5], over 10 µM.

`Cn1c(=O)c2c(CC(=O)Nc3ccn(-c4ccc(Cl)cc4)n3)cccc2n(C)c1=O` [Compound 8]: the IC50 in test [1] is over 1 µM; in test [2], over 10 µM; in test [3], 0.055 µM; in test [4] it was over 10 µM; in test [5], over 10 µM.

Take `Cn1c(=O)c2c(CC(=O)Nc3nc(-c4cccc(Cl)c4)cs3)cccc2n(C)c1=O` [Compound 9]: the IC50 is over 1 µM in test [1]; over 1 µM in test [2]; 0.103 µM in test [3]; over 10 µM in test [4]; over 10 µM in test [5].

Consider `Cn1c(=O)c2c(CC(=O)Nc3nc(-c4ccc(C5CCCCC5)cc4)cs3)cccc2n(C)c1=O` [Compound 10], for which the IC50 was over 10 µM in test [1]; over 10 µM in test [2]; 0.0467 µM in test [3]; over 10 µM in test [4]; over 10 µM in test [5].

In the case of `Cn1c(=O)c2c(CC(=O)Nc3nc(-c4ccc(C(F)(F)F)cc4)cs3)cccc2n(C)c1=O` [Compound 11], the IC50 in test [1] was 1.5 µM; in test [2], over 10 µM; in test [3], 0.0463 µM; in test [4], over 10 µM; in test [5] it was over 10 µM.

In the case of `Cn1c(=O)c2c(CC(=O)Nc3nc(-c4ccc(C(C)(C)C)cc4)cs3)cccc2n(C)c1=O` [Compound 12], the IC50 is over 1 µM in test [1]; over 10 µM in test [2]; 0.0517 µM in test [3]; over 10 µM in test [4]; over 10 µM in test [5].

With `Cn1c(=O)c2c(CC(=O)Nc3nc(-c4ccc(F)cc4F)cs3)cccc2n(C)c1=O` [Compound 13], the IC50 in test [1] was 2.8 µM; in test [2], over 1 µM; in test [3], 0.0482 µM; in test [4] it was over 10 µM; in test [5], over 10 µM.

Turning to `CC(C)c1ccc(-c2csc(NC(=O)Cc3cccc4c3c(=O)n(C)c(=O)n4C)n2)cc1` [Compound 14], the IC50 in test [1] is over 1 µM; in test [2] it was over 1 µM; in test [3], 0.0604 µM; in test [4], over 10 µM; in test [5], over 10 µM.

As for `Cn1c(=O)c2c(CC(=O)Nc3nc(-c4ccc(F)c(Cl)c4)cs3)cccc2n(C)c1=O` [Compound 15], the IC50 was over 1 µM in test [1]; over 1 µM in test [2]; 0.0536 µM in test [3]; over 10 µM in test [4]; over 10 µM in test [5].

Take `CCc1ccc(-c2csc(NC(=O)Cc3cccc4c3c(=O)n(C)c(=O)n4C)n2)cc1` [Compound 17]: the IC50 is over 1 µM in test [1]; over 10 µM in test [2]; 0.056 µM in test [3]; over 10 µM in test [4]; over 10 µM in test [5].

For `Cn1c(=O)c2c(CC(=O)Nc3nc(-c4ccc(C(F)(F)F)c(F)c4)cs3)cccc2n(C)c1=O` [Compound 18], the IC50 in test [1] was 1.32 µM; in test [2], over 10 µM; in test [3], 0.0134 µM; in test [4], over 10 µM; in test [5], over 10 µM.

For `Cn1c(=O)c2c(CC(=O)Nc3nc(-c4ccc(C(F)(F)F)cc4F)cs3)cccc2n(C)c1=O` [Compound 19], the IC50 in test [1] is 1.63 µM; in test [2] it was over 1 µM; in test [3], 0.0261 µM; in test [4] it was over 10 µM; in test [5] it was over 10 µM.

Consider `Cn1c(=O)c2c(CC(=O)Nc3nc(-c4ccc(F)c(C(F)(F)F)c4)cs3)cccc2n(C)c1=O` [Compound 20], for which the IC50 was 1.67 µM in test [1]; over 1 µM in test [2]; 0.0201 µM in test [3]; over 10 µM in test [4]; over 10 µM in test [5].

As for `Cn1c(=O)c2c(CC(=O)Nc3nc(-c4ccc(Cl)c(C(F)(F)F)c4)cs3)cccc2n(C)c1=O` [Compound 21], the IC50 in test [1] was 0.52 µM; in test [2], over 10 µM; in test [3] it was 0.0482 µM; in test [4], over 1 µM; in test [5] it was over 10 µM.

Consider `CCC(=N\O)/C(C)=C/c1ccc(F)cc1` [Compound 89], for which the IC50 in test [1], in test [2], in test [4] and in test [5] was over 10 µM in each case.

Take `Cn1c(=O)c2c(CC(=O)Nc3nc(-c4ccc(C(F)(F)F)c(F)c4)cs3)c(Cl)oc2n(C)c1=O` [Compound 99]: the figures for the IC50 in test [1] and in test [3] were 1.47 µM and 0.00506 µM, respectively.

Regarding `Cn1c(=O)c2c(CC(=O)Nc3nc(-c4cc(F)cc(C(F)(F)F)c4)cs3)c(Cl)oc2n(C)c1=O` [Compound 100], the results for the IC50 in test [1] and in test [3] were over 10 µM and 0.00515 µM, respectively.

Consider `Cn1c(=O)c2c(CC(=O)Nc3nc(-c4ccc(F)c(C(F)(F)F)c4F)cs3)c(Cl)oc2n(C)c1=O` [Compound 101], for which the IC50 in test [1] was over 1 µM; in test [3], 0.0101 µM.

On to `Cn1c(=O)c2c(CC(=O)Nc3nc(-c4ccc(OC(F)(F)F)c(F)c4)cs3)c(Cl)oc2n(C)c1=O` [Compound 102], for which the IC50 came out at 1.35 µM in test [1] and 0.00767 µM in test [3].

As for `Cn1c(=O)c2c(CC(=O)Nc3nc(-c4ccc(F)c(OC(F)(F)F)c4)cs3)c(Cl)oc2n(C)c1=O` [Compound 103], the half-inhibitory concentration (IC50) in test [1] was 4.02 µM; in test [3], 0.0274 µM.

In the case of `Cn1c(=O)c2c(CC(=O)Nc3nc(-c4ccc(C(F)(F)F)c(F)c4F)cs3)c(Cl)oc2n(C)c1=O` [Compound 104], the IC50 in test [1] came out at 1.81 µM; in test [3], 0.00758 µM.
